Assay results taken from the supplement of paper PMC10307832.

Assays:
Assay in all cases: relative viability (nuclei count vs DMSO), 5 days (fraction); higher = more cells survive
Etoposide + Navitoclax = compound: COc1cc([C@@H]2c3cc4c(cc3[C@@H](O[C@@H]3O[C@@H]5CO[C@@H](C)O[C@H]5[C@H](O)[C@H]3O)[C@H]3COC(=O)[C@H]23)OCO4)cc(OC)c1O [Etoposide] + CC1(C)CCC(c2ccc(Cl)cc2)=C(CN2CCN(c3ccc(C(=O)NS(=O)(=O)c4ccc(N[C@H](CCN5CCOCC5)CSc5ccccc5)c(S(=O)(=O)C(F)(F)F)c4)cc3)CC2)C1 [Navitoclax] (partner 0.5 µM)
How it was run: (§1)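 One day after seeding in 1536-well plates, lung cancer cell lines were dosed by pin tool. Dosing was either single-drug or a fixed anchor-drug dose plus five library-drug doses (not always all listed) in √10 steps. After 5 days, nuclei were stained in one fix-and-stain step and counted on 4× images, and relative viability is the nuclei count of treated wells over that of vehicle wells, given as the median of duplicate plates.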

Bleomycin + Tozasertib = compound: CC1=C(N=C(N=C1N)[C@H](CC(=O)N)NC[C@@H](C(=O)N)N)C(=O)N[C@@H]([C@H](C2=CN=CN2)OC3C(C(C(C(O3)CO)O)O)OC4C(C(C(C(O4)CO)O)OC(=O)N)O)C(=O)N[C@H](C)[C@H]([C@H](C)C(=O)N[C@@H]([C@@H](C)O)C(=O)NCCC5=NC(=CS5)C6=NC(=CS6)C(=O)NCCC[S+](C)C)O [Bleomycin] + Cc1cc(Nc2cc(N3CCN(C)CC3)nc(Sc3ccc(NC(=O)C4CC4)cc3)n2)n[nH]1 [Tozasertib] (partner 0.1 µM); settings: main component drawn
How it was run: as §1

Etoposide + Crizotinib = compound: COc1cc([C@@H]2c3cc4c(cc3[C@@H](O[C@@H]3O[C@@H]5CO[C@@H](C)O[C@H]5[C@H](O)[C@H]3O)[C@H]3COC(=O)[C@H]23)OCO4)cc(OC)c1O [Etoposide] + C[C@@H](Oc1cc(-c2cnn(C3CCNCC3)c2)cnc1N)c1c(Cl)ccc(F)c1Cl [Crizotinib] (partner 1 µM)
How it was run: as §1

Etoposide + Pemetrexed = compound: COc1cc([C@@H]2c3cc4c(cc3[C@@H](O[C@@H]3O[C@@H]5CO[C@@H](C)O[C@H]5[C@H](O)[C@H]3O)[C@H]3COC(=O)[C@H]23)OCO4)cc(OC)c1O [Etoposide] + Nc1nc2[nH]cc(CCc3ccc(C(=O)N[C@@H](CCC(=O)O)C(=O)O)cc3)c2c(=O)[nH]1 [Pemetrexed] (partner 0.2 µM)
How it was run: as §1

Cell Line	relative viability (Etoposide + Navitoclax; first compound 0.01 µM)	relative viability (Etoposide + Navitoclax; first compound 0.03162 µM)	relative viability (Etoposide + Navitoclax; first compound 0.1 µM)	relative viability (Etoposide + Navitoclax; first compound 0.3162 µM)	relative viability (Etoposide + Navitoclax; first compound 1 µM)	relative viability (Bleomycin + Tozasertib; first compound 0.01 µM)	relative viability (Bleomycin + Tozasertib; first compound 0.03162 µM)	relative viability (Bleomycin + Tozasertib; first compound 0.1 µM)	relative viability (Bleomycin + Tozasertib; first compound 0.3162 µM)	relative viability (Bleomycin + Tozasertib; first compound 1 µM)	relative viability (Etoposide + Crizotinib; first compound 0.01 µM)	relative viability (Etoposide + Crizotinib; first compound 0.03162 µM)	relative viability (Etoposide + Crizotinib; first compound 0.1 µM)	relative viability (Etoposide + Crizotinib; first compound 0.3162 µM)	relative viability (Etoposide + Crizotinib; first compound 1 µM)	relative viability (Etoposide + Pemetrexed; first compound 0.01 µM)	relative viability (Etoposide + Pemetrexed; first compound 0.03162 µM)	relative viability (Etoposide + Pemetrexed; first compound 0.1 µM)	relative viability (Etoposide + Pemetrexed; first compound 0.3162 µM)	relative viability (Etoposide + Pemetrexed; first compound 1 µM)
NCI-H2126	0.893	0.917	0.49	0.769	0.448	0.736	0.865	0.861	0.421	0.32	0.998	1.05	0.765	0.888	0.328	0.633	0.878	0.591	0.677	0.461
LK-2	0.815	0.945	0.643	0.498	0.267	0.178	0.159	0.179	0.179	0.177	0.264	0.265	0.263	0.219	0.23	0.36	0.315	0.208	0.224	0.186
NCI-H1437	1.11	1.01	1.01	0.524	0.296	0.369	0.404	0.369	0.309	0.324	1.04	0.918	0.926	0.403	0.361	0.309	0.318	0.303	0.325	0.303
COR-L23	0.935	1.02	1.07	0.554	0.236	0.169	0.156	0.128	0.102	0.104	0.548	0.68	0.802	0.45	0.198	0.198	0.207	0.207	0.214	0.189
ABC-1	–	–	–	–	–	0.199	0.209	0.197	0.178	0.198	0.791	0.965	0.892	0.395	0.179	–	–	–	–	–
SW 900	–	–	–	–	–	0.507	0.467	0.341	0.208	0.174	–	–	–	–	–	0.419	0.543	0.522	0.47	0.204
NCI-H1648	–	–	–	–	–	0.383	–	0.401	0.405	0.379	–	–	–	–	–	–	0.859	0.732	0.798	0.581
A549	1.25	1.04	0.46	0.157	0.0716	–	–	–	–	–	0.734	0.624	0.406	0.152	0.083	–	–	–	–	–
NCI-H1792	0.716	0.59	0.507	0.567	0.394	–	–	–	–	–	1.02	0.913	0.825	0.831	0.623	0.743	0.768	–	0.616	0.229
NCI-H1703	1.04	1.12	0.575	0.527	0.307	–	–	–	–	–	–	0.521	0.584	0.501	0.162	–	–	–	–	–
LCLC-103H	–	–	–	–	–	0.427	0.479	0.476	0.279	0.234	1.09	1.02	0.984	1.06	0.988	0.447	0.477	0.523	0.473	0.469
Calu-6	0.883	0.722	0.828	0.418	0.213	–	–	–	–	–	0.751	0.862	0.964	0.575	0.362	–	–	–	–	–
NCI-H358	–	–	–	–	–	0.103	0.101	0.0984	0.106	0.11	0.689	0.441	0.518	0.261	0.139	0.179	0.186	0.178	0.168	0.157
NCI-H2342	–	–	–	–	–	0.537	0.522	0.493	0.432	0.445	–	–	–	–	–	0.861	0.866	0.472	0.421	0.291
EBC-1	0.319	0.41	0.254	0.378	0.225	–	–	–	–	–	0.189	0.202	–	0.197	0.194	–	–	–	–	–
NCI-H1299	1.06	1.02	1.05	0.946	0.785	–	–	–	–	–	0.965	1	1.04	0.948	0.757	–	–	–	–	–
NCI-H522	–	–	–	–	–	0.538	0.542	0.504	0.418	0.346	–	–	–	–	–	0.896	1.22	0.784	0.877	1
IA-LM	0.595	0.742	0.731	0.616	0.431	–	–	–	–	–	0.749	1.15	0.475	0.73	0.698	–	–	–	–	–
NCI-H650	–	–	–	–	–	0.584	0.627	0.57	0.231	0.188	0.568	0.831	0.416	0.339	0.174	0.901	1.01	0.608	0.673	0.347
NCI-H661	–	–	–	–	–	0.366	0.359	0.36	0.374	0.35	1.03	0.981	0.997	0.845	0.736	0.863	0.984	0.849	0.858	0.625
NCI-H727	0.439	0.553	0.369	0.488	0.319	0.761	0.578	0.732	–	0.596	0.771	0.683	0.867	0.766	0.585	–	–	–	–	–
NCI-H1793	0.382	0.564	–	0.387	0.324	0.339	0.308	0.362	0.191	0.171	–	–	–	–	–	–	0.97	0.458	0.629	0.226
